Assay results as given in patent publication US10118926B2, “Tricyclic quinoline and quinoxaline derivatives” (AbbVie Deutschland GmbH & Co. KG, priority 2012, dated 2018).

Molecular target: T1, 5-HT2C receptor (Homo sapiens, UniProt P28335)
T1 construct: β-galactosidase enzyme-complementation fragment (ProLink-type donor); host or cells: U2OS
Assay: Functional activity: beta-arrestin2 recruitment to the 5-HT2C receptor in U2OS_HTR2C_β-Arrestin cells (DiscoverX)
Assay type: cell-based
Details: for EC50: U2OS_HTR2C_β-Arrestin cells, 1.5 h incubation, chemiluminescent β-galactosidase complementation readout, read-out: Potency (EC50) in functional assay; for Emax: relative efficacy: response as percentage of response to 10 μM 5-HT or maximal effect induced by 5-HT (defined as 100%)
Description: The functional activity of compounds of formula I was assayed by incubation with U2OS_HTR2C_β-Arrestin cells (DiscoverX, 93-0289C3) to induce beta-arrestin2 recruitment to the 5-HT2C receptor. The agonist-induced recruitment and proximity of the receptor and beta-arrestin2 leads to complementation and formation of active β-galactosidase. The enzyme complementation results in enzyme activity, which is measured following the termination of the agonist incubation using DiscoveRx's detection reagent, which contains a chemiluminescent substrate which produces a high intensity signal. Cells were plated and a medium-change to a 1% serum containing medium was performed 24 h later. The next day, test compounds were added and incubated for 1.5 h before addition of detection reagent.
The response produced was measured and compared with the response produced by 10 [mu]M 5-HT or the maximal effect induced by 5-HT (defined as 100%) to which it was expressed as a percentage response (relative efficacy). Dose response curves were constructed using Graphpad Prism (Graph Software Inc.) or using in house adapted software using a 4 parameter dose response model with variable slope (fit=(Bottom+(Top−Bottom)/(1+10^((Log EC50−x)*HillSlope))res=(y−fit)). Results are compiled in the table below.

T1 sequence (P28335 33-458): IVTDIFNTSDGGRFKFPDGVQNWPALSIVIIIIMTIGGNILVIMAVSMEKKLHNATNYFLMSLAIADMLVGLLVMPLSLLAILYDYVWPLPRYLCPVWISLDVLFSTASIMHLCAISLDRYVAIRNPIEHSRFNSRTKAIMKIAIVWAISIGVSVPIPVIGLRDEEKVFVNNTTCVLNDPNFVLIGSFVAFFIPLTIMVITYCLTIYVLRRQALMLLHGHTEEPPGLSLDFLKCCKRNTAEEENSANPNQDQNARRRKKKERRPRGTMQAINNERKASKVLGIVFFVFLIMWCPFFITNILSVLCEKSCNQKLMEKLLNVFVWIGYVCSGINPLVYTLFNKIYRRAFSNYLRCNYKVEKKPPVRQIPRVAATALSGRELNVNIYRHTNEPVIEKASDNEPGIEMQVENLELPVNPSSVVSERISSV
T1 sequence (P32121 whole entry partner, the tested form may be a part): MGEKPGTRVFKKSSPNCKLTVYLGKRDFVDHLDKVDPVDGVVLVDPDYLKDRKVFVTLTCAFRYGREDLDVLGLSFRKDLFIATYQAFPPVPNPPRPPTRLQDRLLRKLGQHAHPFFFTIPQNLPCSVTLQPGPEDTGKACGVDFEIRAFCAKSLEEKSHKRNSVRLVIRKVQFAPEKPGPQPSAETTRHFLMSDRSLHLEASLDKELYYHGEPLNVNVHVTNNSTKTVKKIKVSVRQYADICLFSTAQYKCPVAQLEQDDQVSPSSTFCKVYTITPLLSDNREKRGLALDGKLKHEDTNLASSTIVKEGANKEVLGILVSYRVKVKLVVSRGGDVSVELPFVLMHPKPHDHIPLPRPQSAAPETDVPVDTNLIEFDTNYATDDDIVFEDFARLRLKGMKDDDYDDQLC

| SMILES | EC50 | Emax |
| --- | --- | --- |
| CCCN1CCN2CCNCc3cccc1c32 [Example 70, 1-Propyl-2,3,5,6,7,8-hexahydro-1H-[1,4]diazepino[1,7,6-de]quinoxaline] | 20 to 200 nM | 63% |
| Cc1cc2c3c(c1)C1(CCC1)CCN3CCNC2 [Example 76, 10-Methyl-1,2,3,4,6,7-hexahydrospiro[[1,4]diazepino[6,7,1-ij]quinoline-8,1′-cyclobutane], trifluoroacetic acid] | < 20 nM | 98% |
